Experimental data from ChEMBL document CHEMBL5360552, “Potential RNA-dependent RNA polymerase (RdRp) inhibitors as prospective drug candidates for SARS-CoV-2” (Eur J Med Chem, 2023).

Experiments:
SARS-CoV-2 [1] = test: Antiviral activity against SARS-CoV-2 infected in african green monkey Vero E6 cells assessed as reduction in viral replication; type: functional, organism-based; settings: Severe acute respiratory syndrome coronavirus 2, Vero C1008
[2] = Cytotoxicity against human Caco-2 cells assessed as cell growth inhibition by neutral red cytopathic assay; type: toxicity, cell-based
SARS-CoV-2 [3] = test: Antiviral activity against SARS-CoV-2 WA1/2020 infected in african green monkey Vero 76 cells preincubated for 24 hrs followed by viral infection and measured after 3 day post infection by viral yield reduction assay; type: functional; settings: Severe acute respiratory syndrome coronavirus 2, WA1/2020, Vero 76, 96 h; time 4 day
[4] = Selectivity index, ratio of CC50 for african green monkey Vero 76 cells to EC90 for SARS-CoV-2 infected in African Green monkey Vero 76 cells; type: toxicity, cell-based; settings: read-out: Selectivity Index
[5] = Cytotoxicity against human Calu-3 cells assessed as cell growth inhibition by neutral red cytopathic assay; type: toxicity, cell-based
[6] = Selectivity index, ratio of CC50 for african green monkey Vero 76 cells to EC90 for SARS-CoV-2 infected in African Green monkey Vero 76 cells assessed as reduction in cytopathic effect; type: toxicity, cell-based; settings: read-out: Selectivity Index
[7] = Selectivity index, ratio of CC50 for human Caco-2 cells to EC90 for SARS-CoV-2 infected in human Caco-2 cells; type: toxicity, cell-based; settings: read-out: Selectivity Index
[8] = Selectivity index, ratio of CC50 for human Calu-3 cells to EC90 for SARS-CoV-2 infected in human Calu-3 cells; type: toxicity, cell-based; settings: read-out: Selectivity Index
SARS-CoV-2 [9] = test: Antiviral activity against SARS-CoV-2 WA1/2020 infected in human Calu-3 cells preincubated for 2 hrs followed by viral infection and measured after 48 hrs by microscopy analysis; type: functional, organism-based; settings: Severe acute respiratory syndrome coronavirus 2, WA1/2020, Calu-3
SARS-CoV-2 [10] = test: Antiviral activity against SARS-CoV-2 WA1/2020 infected in human Caco-2 cells preincubated for 24 hrs followed by viral infection and measured after 3 day post infection by viral yield reduction assay; type: functional; settings: Severe acute respiratory syndrome coronavirus 2, WA1/2020, Caco-2, 96 h; time 4 day
SARS-CoV-2 [11] = test: Antiviral activity against SARS-CoV-2 WA1/2020 infected in african green monkey Vero E6 cells preincubated for 24 hrs followed by viral infection and measured after 5 day post infection by cytopathic effect assay; type: functional; settings: Severe acute respiratory syndrome coronavirus 2, WA1/2020, Vero C1008, 144 h; time 6 day
[12] = Cytotoxicity against african green monkey Vero 76 cells assessed as cell growth inhibition by neutral red cytopathic assay; type: toxicity, cell-based; settings: chlorocebus sabaeus
SARS-CoV-2 [13] = test: Antiviral activity against wild type SARS-CoV-2 infected in human Calu-3 cells of organoid assessed as intracellular viral RNA level measured after 48 hrs by qRT-PCR analysis; type: functional, organism-based; settings: Severe acute respiratory syndrome coronavirus 2, Calu-3, 48 h
in vitro = settings: human, Calu-3 cells
Description: Selectivity index, ratio of CC50 for human Calu-3 cells to EC50 for SARS-CoV-2 infected in human Calu-3

[14] = Cytotoxicity against human Calu-3 cells assessed as cell growth inhibition incubated for 4 hrs by XTT assay; type: toxicity, cell-based
SARS-CoV-2 [15] = test: Antiviral activity against SARS-CoV-2 infected in human Calu-3 cells assessed as reduction in viral yield incubated for 48 hrs by RT-PCR; type: functional, organism-based; settings: Severe acute respiratory syndrome coronavirus 2, Calu-3, 48 h
[16] = Therapeutic index, ratio of CC50 for HEK293T cells to EC50 for inhibition of SARS-CoV-2 RdRp; type: toxicity; settings: human, read-out: TI
[17] = target: Replicase polyprotein 1ab (Severe acute respiratory syndrome coronavirus 2) (UniProt P0DTD1); test: Inhibition of SARS-CoV-2 RdRp transfected in HEK293T cells at 10 microM incubated for 24 hrs by Gluc-Activity assay relative to control; type: cell-based
[18] = Cytotoxicity against HEK293T cells assessed as cell growth inhibition incubated for 24 hrs by CCK-8 assay; type: toxicity, cell-based, HEK-293T; settings: human
[19] = Cytotoxicity against african green monkey Vero E6 cells assessed as inhibition of cell growth by CCK-8 assay; type: toxicity, cell-based, Vero C1008; settings: chlorocebus sabaeus
[20] = Selectivity index, ratio of CC50 for african green monkey Vero E6 cells to EC50 for SARS-CoV-2 infected in African Green monkey Vero E6 cells; type: toxicity, cell-based, Vero C1008; settings: read-out: Selectivity Index
[21] = Cytotoxicity against human Calu-3 cells assessed as inhibition of cell growth incubated for 4 days by MTS assay; type: toxicity, cell-based; settings: time 4 day
SARS-CoV-2 [22] = test: Antiviral activity against SARS-CoV-2 infected in human Calu-3 cells pretreated for 1 hrs followed by viral infection for 2 days post treatment by qRT-PCR; type: functional, organism-based; settings: Severe acute respiratory syndrome coronavirus 2, Calu-3
[23] = Cytotoxicity against african green monkey Vero E6 cells assessed as inhibition of cell growth incubated for 4 days by MTS assay; type: toxicity, cell-based, Vero C1008; settings: chlorocebus sabaeus, time 4 day
SARS-CoV-2 [24] = test: Antiviral activity against SARS-CoV-2 infected in african green monkey Vero E6 cells assessed as reduction in viral yield at 20 uM incubated for 48 hrs post infection by qRT-PCR relative to control; type: functional, Severe acute respiratory syndrome coronavirus 2; design: scale not given: the % may be the effect or the level left
SARS-CoV-2 [25] = test: Antiviral activity against SARS-CoV-2 infected in african green monkey Vero E6 cells pretreated for 1 hrs followed by viral infection for 2 days post treatment by qRT-PCR; type: functional, organism-based, Severe acute respiratory syndrome coronavirus 2

**Q.** With `Cc1cccc(C)c1OCC(=O)N[C@@H](Cc1ccccc1)[C@@H](O)C[C@H](Cc1ccccc1)NC(=O)[C@H](C(C)C)N1CCCNC1=O` [LOPINAVIR] as the compound, how does the IC50 (SARS-CoV-2 [1]) read?
**A.** 11.5 µM

**Q.** What does the source list for `Nc1ncnc2c([C@@H]3N[C@H](CO)[C@@H](O)[C@H]3O)c[nH]c12`?
**A.** CC50 [2]: 82.8 µM; EC90 (SARS-CoV-2 [3]): 10.9 µM; selectivity ratio [4]: > 27; CC50 [5]: > 50 µM; selectivity ratio [6]: 5.8; selectivity ratio [7]: 5.8; selectivity ratio [8]: > 3.5; EC50 (SARS-CoV-2 [9]): 14.2 µM; EC90 (SARS-CoV-2 [10]): 14.2 µM; EC90 (SARS-CoV-2 [11]): 50.3 µM; CC50 [12]: > 296 µM

**Q.** For `CC(C)C(=O)OC[C@H]1O[C@@H](n2cc/c(=N\O)[nH]c2=O)[C@H](O)[C@@H]1O` [MOLNUPIRAVIR], which IC50 (SARS-CoV-2 [13]) is on record?
**A.** 1.97 µM

**Q.** For `NC(=O)c1ncn([C@@H]2O[C@H](CO)[C@@H](O)[C@H]2O)n1` [RIBAVIRIN], which selectivity ratio (in vitro) is on record?
**A.** 16

**Q.** And the CC50 at 4 h [14]?
**A.** 160 µM

**Q.** And the EC50 (SARS-CoV-2 [15])?
**A.** 7.1 µM

**Q.** With `CC(C)(C)OC(=O)N[C@@H]1CCN(c2ccc3cccc(OCC(=O)NCc4ccccc4)c3n2)C1` as the compound, how does the selectivity ratio [16] read?
**A.** 20.3

**Q.** And the inhibition [17]?
**A.** 74.9%

**Q.** What about the CC50 at 24 h [18] of the same compound?
**A.** 79.4 µM

**Q.** With `CC(C)(C)OC(=O)N1CCN(c2ccc3cccc(OCC(=O)NCc4ccccc4)c3n2)CC1` as the compound, how does the selectivity ratio [16] read?
**A.** 65.5

**Q.** And the inhibition [17]?
**A.** 95%

**Q.** And the CC50 at 24 h [18]?
**A.** 70.8 µM

**Q.** Which results are given for `CC(C)(C)OC(=O)N[C@H]1CCN(c2ccc3cccc(OCC(=O)NCc4ccccc4)c3n2)C1`?
**A.** selectivity ratio [16]: 34.8; inhibition [17]: 92.8%; CC50 at 24 h [18]: 72.4 µM

**Q.** Which results are given for `CCC(CC)COC(=O)[C@H](C)N[P@](=O)(OC[C@H]1O[C@@](C#N)(c2ccc3c(N)ncnn23)[C@H](O)[C@@H]1O)Oc1ccccc1`?
**A.** CC50 [19]: > 100 µM; IC50 (SARS-CoV-2 [1]): 7.18 µM

**Q.** For `CCN(CC)CCCC(C)Nc1ccnc2cc(Cl)ccc12` (stereo not given) [CHLOROQUINE], which IC50 (SARS-CoV-2 [1]) is on record?
**A.** 11.6 µM

**Q.** Which CC50 at 4 h [14] does the source give for `CC(C)OC(=O)[C@H](C)N[P@](=O)(OC[C@H]1O[C@@H](n2ccc(=O)[nH]c2=O)[C@](C)(F)[C@@H]1O)Oc1ccccc1` [SOFOSBUVIR] here?
**A.** 512 µM

**Q.** And the EC50 (SARS-CoV-2 [15])?
**A.** 7.3 µM

**Q.** With `NC(=O)c1nc(F)c[nH]c1=O` as the compound, how does the selectivity ratio [20] read?
**A.** 6.46

**Q.** And the CC50 [19]?
**A.** > 400 µM

**Q.** Which CC50 at 96 h [21] does the source give for `O=C(O)[C@H]1O[C@@H](Oc2cc3oc(-c4ccccc4)cc(=O)c3c(O)c2O)[C@H](O)[C@@H](O)[C@@H]1O` [BAICALIN] here?
**A.** > 100 µM

**Q.** What about the EC50 (SARS-CoV-2 [22]) of the same compound?
**A.** 8 µM

**Q.** And the CC50 at 96 h [23]?
**A.** > 100 µM

**Q.** And the Activity (SARS-CoV-2 [24])?
**A.** 98%

**Q.** And the EC50 (SARS-CoV-2 [25]; Severe acute respiratory syndrome coronavirus 2, Vero C1008)?
**A.** 9 µM

**Q.** Which results are given for `O=c1cc(-c2ccccc2)oc2cc(O)c(O)c(O)c12` [BAICALEIN]?
**A.** CC50 at 96 h [21]: 91 µM; EC50 (SARS-CoV-2 [22]): 1.2 µM; CC50 at 96 h [23]: 8.6 µM; Activity (SARS-CoV-2 [24]): 99.8%; EC90 (SARS-CoV-2 [25]; Severe acute respiratory syndrome coronavirus 2, Vero C1008, 48 h, time 2 day): 7.6 µM

**Q.** With `COC(=O)N[C@H](C(=O)N1CCC[C@H]1c1ncc(-c2ccc(-c3ccc(-c4cnc([C@@H]5CCCN5C(=O)[C@@H](NC(=O)OC)C(C)C)[nH]4)cc3)cc2)[nH]1)C(C)C` as the compound, how does the CC50 at 4 h [14] read?
**A.** 38 µM

**Q.** And the EC50 (SARS-CoV-2 [15])?
**A.** 1.1 µM

**Q.** With `COc1ccc(-c2cc(=O)c3c(O)cc(O)c(-c4cc(-c5cc(=O)c6c(O)cc(O)cc6o5)ccc4OC)c3o2)cc1` [ISOGINKGETIN] as the compound, how does the IC50 (SARS-CoV-2 [1]) read?
**A.** 22.8 µM
